Experimental data taken from patent publication EP1803452A1, “ESTER DERIVATIVE AND PHARMACEUTICAL USE THEREOF” (Japan Tobacco, Inc., priority 2004, dated 2006).

Experiments:
[1] = Metabolic stability test in liver S9; type: in vitro ADME; conditions: pH 7.4, human liver S9 2 mg protein/mL, LC/MS; for remaining at 10 min: unchanged form after 10 minutes at 37°C, read-out: Remaining rate in human liver S9 (%/10min); for remaining at 1 h: unchanged form after 60 minutes at 37°C, read-out: Remaining rate in human liver S9 (%/60min)
Protocol: Human liver S9 (final concentration: 2 mg protein/mL), was suspended in 100 mM potassium phosphate buffer (pH 7.4, containing β-nicotinamide adenine dinucleotide phosphate: 1.3 mM, D-glucose-6- phosphate: 3.3 mM, magnesium chloride: 3.3 mM, glucose-6-phosphate dehydrogenase:0.4 U/mL). The suspension was mixed with a solution of a sample dissolved in DMSO. The solution was incubated at 37°C for 0, 10 and 60 minutes, and an acetonitrile containing formic acid (final concentration: 0.1%) was added thereto. The solutions were centrifuged, and the concentration of the sample (unchanged form) in the supernatant was determined by high performance liquid chromatography/mass spectrometry (LC/MS). Based on the data obtained, remaining rate (%) was calculated according to the following equation. Remaining rate(%) = amount of sample 0,10, or 60 minutes after [formula] incubation/amount of sample at zero time after incubation × 100 [formula]
(§1) With respect to the compounds obtained in Working Examples according to the present invention (Compounds 1-1 to 1-115, 2-1, 3-1, 3-2, and 4-1 to 4-4), the results of the remaining rate in human liver S9 and plasma are shown in Tables 28 to 32.

[2] = Metabolic stability test in plasma; type: in vitro ADME, human; conditions: LC/MS; for remaining at 10 min: unchanged form after 10 minutes at 37°C in human plasma, read-out: Remaining rate in human plasma (%/10min); for remaining at 1 h: unchanged form after 60 minutes at 37°C in human plasma, read-out: Remaining rate in human plasma (%/60min)
Protocol: A sample dissolved in DMSO was added to plasma of human or animal species (mouse and hamster). The solutions were incubated at 37°C for 0, 10 and 60 minutes, and acetonitrile containing formic acid (final concentration: 0.1%) was added thereto. The solutions were centrifuged, and the concentration of the sample (unchanged form) in the supernatant was determined by high performance liquid chromatography/mass spectrometry (LC/MS). Based on the data obtained, the remaining rate (%) was calculated according to the following equation. Remaining rate(%) = amount of sample 0,10, or 60 minutes after incubation/amount of sample at zero time after incubation × 100 [formula]
as §1

[3] = Stability test in buffer (pH 7.4); type: physicochemical; conditions: phosphate buffer/acetonitrile 7:3, 100 mM potassium phosphate buffer (pH 7.4) and acetonitrile 7:3 (v/v), LC/MS; for remaining at 10 min: 10 minutes at 37°C, read-out: Buf. remaining rate (%/10min); for remaining at 1 h: 60 minutes at 37°C, read-out: Buf. remaining rate (%/60min)
Protocol: In the tables, Buf. remaining rate was determined by stability test in buffer (pH 7.4) as described below. A sample dissolved in DMSO was mixed with a mixed solution of 100 mM potassium phosphate buffer and acetonitrile in the ratio of 7:3 (v/v). The mixture was incubated at 37°C for 0, 10, and 60 minutes, and acetonitrile containing formic acid (final concentration: 0.1%) was added thereto. The solution was centrifuged, and the concentration of the sample (unchanged form) in the supernatant was determined by high performance liquid chromatography/mass spectrometry (LC/MS). Based on the data obtained, Buf. remaining rate (%) was calculated according to the following equation. Buf.remaining rate(%) = amount of sample 0,10, or 60 minutes after incubation/amount of sample at zero time after incubation × 100 [formula]

Row | remaining at 10 min [1] | remaining at 1 h [1] | remaining at 10 min [2] | remaining at 1 h [2] | remaining at 10 min [3] | remaining at 1 h [3] | Compound
1 | 0% | 0% | 80% | 40% | 101% | 104% | CN(C)C(=O)c1cc(CCC(=O)Oc2ccccc2)ccc1NC(=O)c1ccccc1-c1ccc(C(F)(F)F)cc1 [Compound 1-1, 3-{3-dimethylcarbamoyl-4-[(4'-trifluoromethylbiphenyl-2-carbonyl)amino]phenyl}propionic acid phenyl ester]
2 | 0% | 0% | 20% | 0% | 98% | 97% | Cc1noc(-c2ccc(OC(=O)CCCc3ccc(NC(=O)c4ccccc4-c4ccc(C(F)(F)F)cc4)c(C(=O)N(C)C)c3)cc2)n1 [Compound 1-2, 4-{3-dimethylcarbamoyl-4-[(4'-trifluoromethylbiphenyl-2-carbonyl)amino]phenyl}butyric acid 4-(3-methyl-[1,2,4]oxadiazol-5-yl)phenyl ester]
3 | 0% | 0% | 58% | 5% | 101% | 98% | CN(C)C(=O)c1cc(CC(=O)Oc2ccccc2)ccc1NC(=O)c1ccccc1-c1ccc(C(F)(F)F)cc1 [Compound 1-3, {3-dimethylcarbamoyl-4-[(4'-trifluoromethylbiphenyl-2-carbonyl)amino]phenyl}acetic acid phenyl ester]
4 | 0% | 0% | 57% | 5% | 99% | 95% | CN(C)C(=O)c1cc(CC(=O)Oc2ccc(F)cc2)ccc1NC(=O)c1ccccc1-c1ccc(C(F)(F)F)cc1 [Compound 1-4, {3-dimethylcarbamoyl-4-[(4'-trifluoromethylbiphenyl-2-carbonyl)amino]phenyl}acetic acid 4-fluorophenyl ester]
5 | 0% | 0% | 11% | 0% | 100% | 101% | COC(=O)c1ccc(OC(=O)CCCc2ccc(NC(=O)c3ccccc3-c3ccc(C(F)(F)F)cc3)c(C(=O)N(C)C)c2)cc1 [Compound 1-5, 4-(4-(3-dimethylcarbamoyl-4-[(4'-trifluoromethylbiphenyl-2-carbonyl)amino]phenyl}butyryloxy)benzoic acid methyl ester]
6 | 0% | 0% | 53% | 0% | 102% | 102% | CCOC(=O)c1ccc(OC(=O)CCCc2ccc(NC(=O)c3ccccc3-c3ccc(C(F)(F)F)cc3)c(C(=O)N(C)C)c2)cc1 [Compound 1-6, 4-(4-{3-dimethylcarbamoyl-4-[(4'-trifluoromethylbiphenyl-2-carbonyl)amino]phenyl}butyryloxy)benzoic acid ethyl ester]
7 | 0% | 0% | 60% | 0% | 98% | 98% | CC(C)OC(=O)c1ccc(OC(=O)CCCc2ccc(NC(=O)c3ccccc3-c3ccc(C(F)(F)F)cc3)c(C(=O)N(C)C)c2)cc1 [Compound 1-7, 4-(4-{3-dimethylcarbamoyl-4-[(4'-trifluoromethylbiphenyl-2-carbonyl)amino]phenyl}butyryloxy)benzoic acid isopropyl ester]
8 | 0% | 0% | 71% | 12% | 99% | 98% | CCCOC(=O)c1ccc(OC(=O)CCCc2ccc(NC(=O)c3ccccc3-c3ccc(C(F)(F)F)cc3)c(C(=O)N(C)C)c2)cc1 [Compound 1-8, 4-(4-{3-dimethylcarbamoyl-4-[(4'-trifluoromethylbiphenyl-2-carbonyl)amino]phenyl}butyryloxy) benzoic acid propyl ester]
9 | 0% | 0% | 0% | 0% | 101% | 98% | COC(=O)c1ccc(OC(=O)CCCc2ccc(NC(=O)c3ccccc3-c3ccc(C(F)(F)F)cc3)c(C(=O)N(C)C)c2)c(F)c1 [Compound 1-10, 4-(4-{3-dimethylcarbamoyl-4-[(4'-trifluoromethylbiphenyl-2-carbonyl)amino]phenyl}butyryloxy)-3-fluoro benzoic acid methyl ester]
10 | 0% | 0% | 0% | 0% | 99% | 99% | COC(=O)c1ccc(OC(=O)CCCc2ccc(NC(=O)c3ccccc3-c3ccc(C(F)(F)F)cc3)c(C(=O)N(C)C)c2)c(Cl)c1 [Compound 1-11, 3-chloro-4-(4-{3-dimethylcarbamoyl-4-[(4'-trifluoromethylbiphenyl-2-carbonyl)amino]phenyl}butyryloxy)benzoic acid methyl ester]
11 | 0% | 0% | 10% | 0% | 100% | 103% | COC(=O)c1ccc(OC(=O)CCCc2ccc(NC(=O)c3ccccc3-c3ccc(C(F)(F)F)cc3)c(C(=O)N(C)C)c2)c(OC)c1 [Compound 1-12, 4-(4-{3-dimethylcarbamoyl-4-[(4'-trifluoromethylbiphenyl-2-carbonyl)amino]phenyl}butyryloxy)-3-methoxybenzoic acid methyl ester]
12 | 0% | 0% | 24% | 0% | 95% | 97% | COC(=O)c1ccc(OC(=O)CCCc2ccc(NC(=O)c3ccc(C)nc3-c3ccc(C(F)(F)F)cc3)c(C(=O)N(C)C)c2)cc1 [Compound 1-13, 4-[4-(3-dimethylcarbamoyl-4-{[6-methyl-2-(4-trufluoromethylphenyl)pyridine-3-carbonyl]amino}phenyl)butyryloxy)benzoic acid methyl ester]
13 | 2% | 0% | 43% | 0% | 101% | 104% | COC(=O)c1ccc(OC(=O)CCCc2ccc(NC(=O)c3ccccc3-c3ccc(C(F)(F)F)cc3)c(C(=O)N(C)C)c2)cc1C [Compound 1-14, 4-(4-{3-dimethylcarbamoyl-4-[(4'-trifluoromethylbiphenyl-2-carbonyl)amino]phenyl}butyryloxy)-2-methyl benzoic acid methyl ester]
14 | 4% | 0% | 42% | 0% | 98% | 100% | COC(=O)c1ccc(OC(=O)CCCc2ccc(NC(=O)c3ccccc3-c3ccc(C(F)(F)F)cc3)c(C(=O)N3CCCC3)c2)cc1 [Compound 1-15, 4-(4-{3-(pyrrolidine-1-carbonyl)-4-[(4'-trifluoromethylbiphenyl-2-carbonyl)amino]phenyl}butyryloxy)benzoic acid methyl ester]
15 | 2% | 0% | 3% | 0% | 98% | 103% | CCOC(=O)c1ccc(OC(=O)CCCc2ccc(NC(=O)c3ccccc3-c3ccc(C(F)(F)F)cc3)c(C(=O)N3CCCC3)c2)c(F)c1 [Compound 1-16, 3-fluoro-4-(4-{3-(pyrrolidine-1-carbonyl)-4-[(4'-trifluoromethylbiphenyl-2-carbonyl)amino]phenyl)butyryloxy)benzoic acid ethyl ester]
